Laboratory results: PubChem BioAssay AID192 (DTP/NCI, 2004)
Several values for one entry are separate records, joined by “and”; a condition that tells them apart may be missing. Identical values can stand only once. Inconclusive results and toxic doses are left out.

Tested on: BDF1 mice, B16 melanoma ip, median survival T/C
Test: NCI In Vivo Anticancer Drug Screen. Data for tumor model B16 Melanoma (intraperitoneal) in B6D2F1 (BDF1) mice
Details: endpoint: median survival time, higher = longer survival
Outline: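 Tumor-bearing mice received test compound or vehicle. Survival or tumor size was then measured in both groups. The treated-group figure was divided by the control-group figure.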

[1] = dose: 100.0 mg/kg/injection, schedule: Q01DX009 (ip), vehicle: Klucel (hydroxypropylcellulose) (HPC)
[2] = dose: 200.0 mg/kg/injection, schedule: Q01DX009 (ip), vehicle: Klucel (hydroxypropylcellulose) (HPC)
[3] = dose: 400.0 mg/kg/injection, schedule: Q01DX009 (ip), vehicle: Klucel (hydroxypropylcellulose) (HPC)
[4] = dose: 6.25 mg/kg/injection, schedule: Q01DX009 (ip), vehicle: saline
[5] = dose: 1.0 mg/kg/injection, schedule: Q01DX009 (ip), vehicle: saline with Tween-80
[6] = dose: 50.0 mg/kg/injection, schedule: Q04DX003 (ip), vehicle: saline
[7] = dose: 100.0 mg/kg/injection, schedule: Q04DX003 (ip), vehicle: saline
[8] = dose: 12.5 mg/kg/injection, schedule: Q01DX009 (ip), vehicle: saline
[9] = dose: 25.0 mg/kg/injection, schedule: Q01DX009 (ip), vehicle: saline
[10] = dose: 200.0 mg/kg/injection, schedule: Q04DX003 (ip), vehicle: saline
[11] = dose: 400.0 mg/kg/injection, schedule: Q04DX003 (ip), vehicle: saline

In the case of `COc1cccc2c1C(=O)c1c(O)c3c(c(O)c1C2=O)C[C@@](O)(/C(C)=N\NC=O)C[C@@H]3OC1CC(N)C(O)C(C)O1` (some centres not stated), the T/C (dose: 0.38 mg/kg/injection, schedule: Q01DX009 (ip), vehicle: saline) is reported as 112 % of control, the T/C (dose: 0.75 mg/kg/injection, schedule: Q01DX009 (ip), vehicle: saline) is reported as 117 % of control and the T/C (dose: 1.5 mg/kg/injection, schedule: Q01DX009 (ip), vehicle: saline) is reported as 150 % of control. For the same molecule, the T/C (dose: 3.0 mg/kg/injection, schedule: Q01DX009 (ip), vehicle: saline) was 174 % of control, the T/C (dose: 6.0 mg/kg/injection, schedule: Q01DX009 (ip), vehicle: saline) was 216 % of control and the T/C (dose: 12.0 mg/kg/injection, schedule: Q01DX009 (ip), vehicle: saline) was 211 % of control.
For `O=C(CN1C(=O)c2ccccc2C1=O)OC(c1ccccc1)c1ccccc1`, the T/C (dose: 50.0 mg/kg/injection, schedule: Q01DX009 (ip), vehicle: Klucel (hydroxypropylcellulose) (HPC)) was 90 % of control and the T/C [1] was 90 % of control.
`CN(C)c1ccc(C=C2c3ccccc3-c3ccccc32)cc1` was tested, and the T/C [1] was 106 % of control, the T/C [2] was 103 % of control and the T/C [3] was 106 % of control.
For `O=C1C(Br)=C(Br)C(=O)C1(Br)Br`, the T/C (dose: 1.56 mg/kg/injection, schedule: Q01DX009 (ip), vehicle: saline) was 100 % of control, the T/C (dose: 3.13 mg/kg/injection, schedule: Q01DX009 (ip), vehicle: saline) was 105 % of control and the T/C (dose: 3.13 mg/kg/injection, schedule: Q04DX003 (ip), vehicle: saline with Tween-80) was 94 % of control. The T/C [4] was 102 % of control and the T/C (dose: 6.25 mg/kg/injection, schedule: Q04DX003 (ip), vehicle: saline with Tween-80) was 89 % of control.
With `CCN(CC)CCOCCO` the T/C (dose: 25.0 mg/kg/injection, schedule: Q01DX009 (ip), vehicle: suspension in saline) was 107 % of control, the T/C (dose: 50.0 mg/kg/injection, schedule: Q01DX009 (ip), vehicle: suspension in saline) was 95 % of control and the T/C (dose: 100.0 mg/kg/injection, schedule: Q01DX009 (ip), vehicle: suspension in saline) was 105 % of control. For the same molecule, the T/C (dose: 200.0 mg/kg/injection, schedule: Q01DX009 (ip), vehicle: suspension in saline) was 96 % of control.
With `CCOC(=O)CC(=O)c1ccccc1F` the T/C [1] was 99 % of control, the T/C [2] was 102 % of control and the T/C [3] was 106 % of control.
In the case of `COC1=C(N2CC2)C(=O)C(OC)=C(N2CC2)C1=O`, the T/C (dose: 0.25 mg/kg/injection, schedule: Q01DX009 (ip), vehicle: other) is reported as 112 % of control and 118 % of control, the T/C [5] is reported as 179 % of control and the T/C (dose: 2.0 mg/kg/injection, schedule: Q01DX009 (ip), vehicle: other) is reported as 169 % of control.
In the case of `CCC(C(=O)O)C(=O)O.[NH2-].[NH2-].[Pt+2]`, the T/C (dose: 8.0 mg/kg/injection, schedule: Q01DX009 (ip), vehicle: water) is reported as 115 % of control, the T/C (dose: 12.5 mg/kg/injection, schedule: Q04DX003 (ip), vehicle: saline) is reported as 108 % of control and 113 % of control and the T/C (dose: 16.0 mg/kg/injection, schedule: Q01DX009 (ip), vehicle: water) is reported as 170 % of control. For the same molecule, the T/C (dose: 25.0 mg/kg/injection, schedule: Q04DX003 (ip), vehicle: saline) was 170 % of control, the T/C [6] was 177 % of control and 219 % of control and the T/C [7] was 112 % of control and 247 % of control.
For `N=C(N)SCc1c2ccccc2c(CSC(=N)N)c2ccccc12`, the T/C [8] was 238 % of control and the T/C [9] was 285 % of control.
With `CC[CH2][Sn]([CH2]CC)([CH2]CC)[O][Sn]([CH2]CC)([CH2]CC)[CH2]CC` the T/C (dose: 0.25 mg/kg/injection, schedule: Q01DX009 (ip), vehicle: saline) was 95 % of control, the T/C (dose: 0.5 mg/kg/injection, schedule: Q01DX009 (ip), vehicle: saline) was 100 % of control and the T/C (dose: 0.5 mg/kg/injection, schedule: Q04DX003 (ip), vehicle: saline) was 117 % of control. The T/C (dose: 1.0 mg/kg/injection, schedule: Q01DX009 (ip), vehicle: saline) was 92 % of control and the T/C (dose: 1.0 mg/kg/injection, schedule: Q04DX003 (ip), vehicle: saline) was 117 % of control.
`CCCCCCCC(=O)OCC(=O)[C@]1(O)Cc2c(O)c3c(c(O)c2[C@@H](OC2CC(N)C(O)C(C)O2)C1)C(=O)c1c(OC)cccc1C3=O` (some centres not stated) was tested, and the T/C (dose: 0.25 mg/kg/injection, schedule: Q01DX009 (ip), vehicle: saline with Tween-80) was 176 % of control, the T/C (dose: 0.5 mg/kg/injection, schedule: Q01DX009 (ip), vehicle: saline with Tween-80) was 222 % of control and the T/C [5] was 151 % of control and 212 % of control. The T/C (dose: 1.25 mg/kg/injection, schedule: Q01DX001 (ip), vehicle: water) was 170 % of control, the T/C (dose: 2.0 mg/kg/injection, schedule: Q01DX009 (ip), vehicle: saline with Tween-80) was 150 % of control and 274 % of control and the T/C (dose: 2.5 mg/kg/injection, schedule: Q01DX001 (ip), vehicle: water) was 117 % of control (2×) and 214 % of control. The T/C (dose: 5.0 mg/kg/injection, schedule: Q01DX001 (ip), vehicle: water) was 97 % of control and 252 % of control, the T/C (dose: 10.0 mg/kg/injection, schedule: Q01DX001 (ip), vehicle: water) was 227 % of control and the T/C (dose: 20.0 mg/kg/injection, schedule: Q01DX001 (ip), vehicle: water) was 122 % of control. The T/C (dose: 1440.0 micrograms/kg/injection, schedule: Q01DX004 (ip), vehicle: other) was 115 % of control, the T/C (dose: 2400.0 micrograms/kg/injection, schedule: Q01DX004 (ip), vehicle: other) was 110 % of control and the T/C (dose: 4000.0 micrograms/kg/injection, schedule: Q01DX004 (ip), vehicle: other) was 122 % of control.
With `C=CCOCC(O)CO` (configuration not stated) the T/C [7] was 109 % of control, the T/C [10] was 93 % of control and the T/C [11] was 102 % of control.
In the case of `COC(=O)CC(=O)c1ccc(C)cc1`, the T/C [1] is reported as 103 % of control and the T/C [2] is reported as 95 % of control.
In the case of `CN1CN(C)CN(C)C1`, the T/C [9] is reported as 118 % of control.
`COC1CCCCC1SCSC1CCCCC1OC` (configuration not stated) was tested, and the T/C (dose: 100.0 mg/kg/injection, schedule: Q01DX009 (ip), vehicle: saline with Tween-80) was 105 % of control, the T/C (dose: 200.0 mg/kg/injection, schedule: Q01DX009 (ip), vehicle: saline with Tween-80) was 102 % of control and the T/C (dose: 400.0 mg/kg/injection, schedule: Q01DX009 (ip), vehicle: saline with Tween-80) was 105 % of control.
With `COc1cccc2c1C(=O)c1c(O)c3c(c(O)c1C2=O)C[C@@](O)(C(C)O)C[C@@H]3OC1CC(N2CCC(OC)CC2)C(O)C(C)O1` (some centres not stated) the T/C (dose: 3.12 mg/kg/injection, schedule: Q01DX001 (ip), vehicle: water) was 112 % of control, the T/C (dose: 6.25 mg/kg/injection, schedule: Q01DX001 (ip), vehicle: water) was 117 % of control and the T/C (dose: 12.5 mg/kg/injection, schedule: Q01DX001 (ip), vehicle: water) was 173 % of control. The T/C (dose: 25.0 mg/kg/injection, schedule: Q01DX001 (ip), vehicle: water) was 165 % of control and 166 % of control and the T/C (dose: 50.0 mg/kg/injection, schedule: Q01DX001 (ip), vehicle: water) was 177 % of control.
With `NNC(=O)c1nc(N)n[nH]1` the T/C [7] was 103 % of control, the T/C [10] was 104 % of control and the T/C [11] was 103 % of control.
With `CN1CCC=C(CN(c2ccccc2)c2ccccc2)C1` the T/C [9] was 92 % of control, the T/C (dose: 50.0 mg/kg/injection, schedule: Q01DX009 (ip), vehicle: saline) was 89 % of control and the T/C (dose: 100.0 mg/kg/injection, schedule: Q01DX009 (ip), vehicle: saline) was 92 % of control.
With `CC1=C(/C=C/C(C)=N/NC(N)=O)C(C)(C)CCC1` the T/C [6] was 112 % of control, the T/C [7] was 95 % of control and the T/C [10] was 102 % of control.
For `CN(C)c1ccc2nc3ccc(=[N+](C)C)cc-3sc2c1`, the T/C [4] was 86 % of control and the T/C [8] was 93 % of control.
In the case of `COc1cc2ccc3c(c2cc1OC)N(C)C(OC)c1cc2c(cc1-3)OCO2` (configuration not stated), the T/C (dose: 10.0 mg/kg/injection, schedule: Q01DX009 (ip), vehicle: saline with Tween-80) is reported as 119 % of control.
With `C=C1COC(O)(C2OCOC(C3CC(=O)NC(=O)C3)C2O)C1C` (configuration not stated) the T/C (dose: 2.0 micrograms/kg/injection, schedule: Q01DX009 (ip), vehicle: water) was 104 % of control, the T/C (dose: 4.0 micrograms/kg/injection, schedule: Q01DX009 (ip), vehicle: water) was 104 % of control and the T/C (dose: 8.0 micrograms/kg/injection, schedule: Q01DX009 (ip), vehicle: water) was 100 % of control. For the same molecule, the T/C (dose: 16.0 micrograms/kg/injection, schedule: Q01DX009 (ip), vehicle: water) was 108 % of control and the T/C (dose: 32.0 micrograms/kg/injection, schedule: Q01DX009 (ip), vehicle: water) was 103 % of control.
